Results taken from article PMC12844124, “Synthesis and Study of Substituted Chalcones Combined with Fluoroazobenzenes—New Photoswitches for Application in Biological Systems” (Molecules, 2026).

Legend:
[1] = Changes over time of Z to E transition by 19F NMR; type: physicochemical; settings: light 505 nm, 100 mM in DMSO
Text: We can observe that for electromagnetic radiation in the range of wavelengths 390 nm to 610 nm, transitions from E to Z of about 0–76% are obtained. The best results for all compounds are in visible wavelengths 505 nm or 525 nm (30.59–75.44%). From analyzing Figure 2 we can draw the following conclusions: all synthesized compounds undergo switching under visible light (this is important because UV radiation can damage the DNA of cells, inhibiting replication and, as a result, preventing cell division). For the 2,6-difluoro substituents (17i), (17j), (17k), and (17l) with values of 74.84%, 73.2%, 74.39%, and 75.44%, respectively, the largest share of the Z configuration is at (525 nm) and, for the rest of (17a), (17b), (17c), (17e), (17f), and (17g), it is in range of 30.57–47.13% at 505 nm. […] Multiple cycles of photoreversible switching under alternating green and blue light irradiation, with no significant photobleaching or degradation, confirmed the repeatable and robust photochromic conversion of the synthesized azobenzenes (Figure 2b). Then we measured changes over time (transitions from Z to E, upon irradiation with 505 nm for (17a–17c) and (17e–17g), and 525 nm for (17i–17l) compounds (Figure 3, and see Section S4.3 in Supplementary Materials).

[2] = UV–VIS spectra of E/Z isomers in DMSO; type: physicochemical; settings: for Δ λmax n→π*: between E and Z isomers
Description: For this purpose, the UV–VIS spectra were measured for all synthesized hybrids (17a–17l) at concentrations from 20 to 500 µM in dimethyl sulfoxide (DMSO) in light at λ 505 nm and for (17a–17c), (17e–17g), and (17i–17l) at λ 525 nm, respectively, as detailed in Table 1 (see Section S4.4 in Supplementary Materials).

| Compound | Z isomer, changes over time ([1]; 0 h) [%] | Z isomer, changes over time ([1]; 1 h) [%] | Z isomer, changes over time ([1]; 2 h) [%] | Z isomer, changes over time ([1]; 3 h) [%] | Z isomer, changes over time ([1]; 4 h) [%] | Z isomer, changes over time ([1]; 5 h) [%] | Z isomer, changes over time ([1]; 6 h) [%] | Z isomer, changes over time ([1]; 7 h) [%] | Z isomer, changes over time ([1]; 8 h) [%] | Δ (Z to E change 0 h to 8 h) [1] [%] | εmax (n→π*) ([2]; E isomer) [dm^3·mol^−1·cm^−1] | λmax n→π* (E) ([2]; E isomer) [nm] | εmax (n→π*) ([2]; Z isomer) [dm^3·mol^−1·cm^−1] | λmax n→π* (Z) ([2]; Z isomer) [nm] | Δ λmax n→π* [2] [nm] |
| --- | --- | --- | --- | --- | --- | --- | --- | --- | --- | --- | --- | --- | --- | --- | --- |
| COc1ccc(/C=C/C(=O)c2cccc(/N=N/c3ccc(F)cc3)c2)cc1OC [Compound 17a] | 32.44 | 31.33 | 30.37 | 29.4 | 28.74 | 27.66 | 26.82 | 26.38 | 26.02 | 6.42 |  |  |  |  |  |
| COc1cc(/C=C/C(=O)c2cccc(/N=N/c3ccc(F)cc3)c2)cc(OC)c1 [Compound 17b] | 32.38 | 32.21 | 30.2 | 29.69 | 28.37 | 26.74 | 25.21 | 24.74 | 24.03 | 8.35 | 688 | 442.1 | 898 | 434.0 | 8.1 |
| COc1cc(/C=C/C(=O)c2cccc(/N=N/c3ccc(F)cc3)c2)cc(OC)c1OC [Compound 17c] | 30.59 | 30.16 | 28.28 | 27.14 | 25.95 | 25.61 | 25.18 | 24.05 | 23.17 | 7.42 |  |  |  |  |  |
| COc1ccc(/C=C/C(=O)c2cccc(/N=N/c3ccc(F)cc3F)c2)cc1OC [Compound 17e] | 46.84 | 45.35 | 45.18 | 44.16 | 43.55 | 43.39 | 43.01 | 42.31 | 42.17 | 4.67 |  |  |  |  |  |
| COc1cc(/C=C/C(=O)c2cccc(/N=N/c3ccc(F)cc3F)c2)cc(OC)c1 [Compound 17f] | 47.13 | 46.61 | 45.77 | 44.72 | 44.28 | 43.95 | 43.3 | 42.6 | 41.87 | 5.26 | 872 | 441.9 | 1150 | 427.9 | 14.0 |
| COc1cc(/C=C/C(=O)c2cccc(/N=N/c3ccc(F)cc3F)c2)cc(OC)c1OC [Compound 17g] | 44.82 | 43.69 | 42.89 | 42.36 | 41.25 | 40.61 | 40.5 | 39.88 | 38.78 | 6.04 |  |  |  |  |  |
